# Where a name gives a salt, the structure may show the parent alone. Read-outs that look alike come from different tables or passages of the source.
# What was measured:
# [1] = test system: platelet aggregation (rat blood, platelet-rich plasma); test: Inhibition of platelet aggregation in vitro (rat blood); type: cell-based; conditions: 0.1 h, Sprague-Dawley rat PRP, area under the curve of absorbance over 6 minutes
# Procedure: Inhibition of Platelet Aggregation In Vitro (Rat Blood) Blood is taken from male rats of the Sprague-Dawley strain, weighing 250-300 g. The sample is taken on 3.8% sodium citrate (1 volume for 9 blood volumes) by abdominal aortic puncture after the animal has been anesthetized with sodium pentobarbital. The platelet-rich plasma (PRP) is obtained by centrifugation of the blood at 300 g for 5 minutes, and the platelet aggregation measurements are carried out as described above. The results are calculated using the area under the curve of absorbance measured for 6 minutes, and expressed by the percentage inhibition. The platelet aggregation measurements are carried out at 37° C. in glass tubes (Chrono-Log aggregometer—Kordia). 4 μl of the test compound (solution 100 times more concentrated than the desired final concentration, in DMSO) are mixed with 392 μl of fresh PRP, and incubated for 1 minute with stirring. Then, 4 μl of a solution of ADP at 250 μM are added to the mixture. The aggregation measurements are monitored for 6 to 8 minutes, with constant stirring, by recording the variations in the optical density according to the method of G.V.R. BORN (Born Nature (1962) 194, 927).
# [2] = test system: platelet aggregation (rat blood, platelet-rich plasma); test: Inhibition of platelet aggregation ex vivo (rat blood); type: in vivo
# Procedure: The platelet aggregation measurements are carried out at 37° C. in glass tubes (Chrono-Log aggregometer—Kordia). 4 μl of the test compound (solution 100 times more concentrated than the desired final concentration, in DMSO) are mixed with 392 μl of fresh PRP, and incubated for 1 minute with stirring. Then, 4 μl of a solution of ADP at 250 μM are added to the mixture. The aggregation measurements are monitored for 6 to 8 minutes, with constant stirring, by recording the variations in the optical density according to the method of G.V.R. BORN (Born Nature (1962) 194, 927). Inhibition of Platelet Aggregation Ex Vivo (Rat Blood) Male rats of the Sprague-Dawley strain, weighing 250-300 g, are used in a proportion of 6 animals per batch. Each test compound is diluted in a glucose solution (5% glucose) containing 5% of cremophor and 3% of glycofurol. […] The sample is taken on 3.8% sodium citrate (1 volume for 9 blood volumes) by abdominal aortic puncture after the animal has been anesthetized with sodium pentobarbital. The platelet-rich plasma (PRP) is obtained by centrifugation of the blood at 300 g for 5 minutes, and the platelet aggregation measurements are carried out as described above. The results are calculated using the area under the curve of absorbance measured for 6 minutes, and expressed by the percentage (%) inhibition.
# [3] = test system: platelet aggregation (human blood, platelet-rich plasma); test: Inhibition of platelet aggregation in vitro (human blood); type: cell-based; conditions: human PRP from healthy volunteers, ADP-induced, size of aggregation as height
# Procedure: Inhibition of Platelet Aggregation In Vitro (Human Blood) Blood is taken from healthy volunteers, using 20 ml syringes containing 2 ml of buffered sodium citrate. The blood is transferred into polypropylene tubes and centrifuged for 5 minutes (100 g) at ambient temperature (without using the brake of the centrifuge). The platelet-rich plasma (PRP) supernatant is then removed, diluted, and counted for platelets before being used in the aggregation measurements. The platelet aggregation measurements are carried out at 37° C. in glass tubes (Chrono-Log aggregometer—Kordia). 4 μl of the test compound (solution 100 times more concentrated than the desired final concentration, in DMSO) are mixed with 392 μl of fresh PRP, and incubated for 1 minute with stirring. Then, 4 μl of a solution of ADP at 250 μM are added to the mixture. The aggregation measurements are monitored for 6 to 8 minutes, with constant stirring, by recording the variations in the optical density according to the method of G.V.R. BORN (Born Nature (1962) 194, 927). The results are calculated using the size of the aggregation expressed as height, and expressed by the percentage inhibition.
# [4] = oral gavage, t = 2 h after administration, read-out: Inhibition of platelet aggregation ex vivo (rat blood), Gavage (oral)
smiles,measurement,setting,value
"CCCC(=O)c1cnn(C2CCN(NC(=O)c3cn(CC(=O)N4CCN(C)CC4)c4ccc(Cl)cc34)CC2)c1C [Compound 4, 5 -Chloro-1-[2-(4-methylpiperazin-1-yl)-2-oxoethyl]-1H-indole-3-carboxylic acid [4-(4-butyryl-5-methylpyrazol-1-yl)piperidin-1-yl]amide hydrochloride]",IC50,[1],43 nM
same,inhibition at 1 mg/kg,"[2]; intravenous infusion, dose 1 mg/kg, t = 2 h after administration",88 ± 5%
same,inhibition at 3 mg/kg,[2]; [4],72 ± 15%
same,IC50,[3],25 nM
"CCCC(=O)c1cnn([C@H]2CC[C@H](NC(=O)c3cn(CC(=O)N4CCN(CCOC)CC4)c4ccc(Cl)cc34)CC2)c1C [Compound 2, 5-Chloro-1-{2-[4-(2-methoxyethyl)piperazin-1-yl]-2-oxoethyl}-1H-indole-3-carboxylic acid [4-(4-butyryl-5-methylpyrazol-1-yl)cyclohexyl]-amide hydrochloride]",IC50,[1],80 nM
"CCCC(=O)c1cnn([C@H]2CC[C@H](NC(=O)c3cn(CC(=O)N4CCN(CCOC)CC4)c4ccc(Cl)cc34)CC2)c1C (as salt: hydrochloride) [Compound 2, 5-Chloro-1-{2-[4-(2-methoxyethyl)piperazin-1-yl]-2-oxoethyl}-1H-indole-3-carboxylic acid [4-(4-butyryl-5-methylpyrazol-1-yl)cyclohexyl]-amide hydrochloride]",melting point,,263 °C
"CCCC(=O)c1cnn(C2CCN(NC(=O)c3cn(CC(=O)N4CCN(CCOC)CC4)c4ccc(Cl)cc34)CC2)c1C [Compound 5, 5-Chloro-1-{2-[4-(2-methoxyethyl)piperazin-1-yl]-2-oxoethyl}-1H-indole-3-carboxylic acid [4-(4-butyryl-5-methylpyrazol-1-yl-piperidin-1-yl]amide hydrochloride]",IC50,[1],17 nM
"CCCC(=O)c1cnn([C@H]2CC[C@H](NC(=O)c3cn(CC(=O)N4CCN(C)CC4)c4ccc(Cl)cc34)CC2)c1C [Compound 1, 5-Chloro-1-[2-(4-methylpiperazin-1-yl)-2-oxoethyl]-1H-indole-3-carboxylic acid [4-(4-butyryl-5-methyl-pyrazol-1-yl)-cyclohexyl]amide hydrochloride]",IC50,[1],91 nM
same,inhibition at 3 mg/kg,"[2]; 0.5 h, intravenous infusion, 30 min after administration, read-out: Inhibition of platelet aggregation ex vivo (rat blood), Infusion (Intravenous)",79 ± 5%
same,inhibition at 3 mg/kg,[2]; [4],42.8 ± 10.7%
same,IC50,[3],270 nM
"CCCC(=O)c1cnn([C@H]2CC[C@H](NC(=O)c3cn(CC(=O)N4CCN(CCC(F)(F)F)CC4)c4ccc(Cl)cc34)CC2)c1C (as salt: hydrochloride) [Compound 3, 5-Chloro-1-{2-oxo-2-[4-(3,3,3-trifluoropropyl)piperazin-1-yl]ethyl}-1H-indole-3-carboxylic acid [4-(4-butyryl-5-methylpyrazol-1-yl)cyclohexyl]amide hydrochloride]",melting point,,249 °C
"CCCC(=O)c1cnn([C@H]2CC[C@H](NC(=O)c3cn(CC(=O)N4CCN(CCC(F)(F)F)CC4)c4ccc(Cl)cc34)CC2)c1C [Compound 3, 5-Chloro-1-{2-oxo-2-[4-(3,3,3-trifluoropropyl)piperazin-1-yl]ethyl}-1H-indole-3-carboxylic acid [4-(4-butyryl-5-methylpyrazol-1-yl)cyclohexyl]amide hydrochloride]",IC50,[1],294 nM
"CCCC(=O)c1cnn(C2CCN(NC(=O)c3cn(CC(=O)N4CCN(CCOC(F)(F)F)CC4)c4ccc(Cl)cc34)CC2)c1C [Compound 6, 5-Chloro-1-{2-oxo-2-[4-(2-trifluoromethoxyethyl)piperazin-1-yl]ethyl}-1H-indole-3-carboxylic acid [4-(4-butyryl-5-methylpyrazol-1-yl)piperidin-1-yl]amide hydrochloride]",IC50,[1],46 nM

# Reference: patent US20150274703A1, “1H-Indole-3-Carboxamide Derivatives And Use Thereof As P2Y12 Antagonists” (SANOFI, priority 2012, published 2015)
